Results on 14 compounds are retold here after patent publication US20260297081A1, “COMPOUNDS AND METHODS OF TREATING CANCERS” (Cullgen Inc., priority 2023, published 2026).

Holding throughout (format): cell-based
The test system of one test is Calu-1 cells. Description: Anti-proliferation (viability) of NSCLC Calu-1 cells, 3 days (Table 7, FIG. 2B). The following applies: Homo sapiens, 72 h; Calu-1 cells, 3 days, 10-point serial dilution; read-out: GI IC50 in Calu-1. As for the experimental part:
To evaluate anti-proliferation activities of heterobifunctional compounds, NSCLC Calu-1 or ER+ breast cancer T47D cells were treated with selected heterobifunctional compounds following a 10-point serial dilution for 3 or 6 days, respectively.
To verify that heterobifunctional compound-mediated degradation is dependent on the binding to CDK4-cyclin D complex, a negative control compound, CPD-143, which is derived from active heterobifunctional compound CPD-10 was designed. CPD-143 bears the same DDB1 ligand and linker as CPD-10 but with a modified warhead to impair the binding of the control compound to CDK4.

The next test deals with MCF7 cells. Description: Anti-proliferation (viability) of MCF7 cells (Table 7, FIG. 2B). The conditions noted are these: Homo sapiens, MCF7, MCF7 cells, 3-6 days, 10-point serial dilution; read-out: GI IC50 in MCF-7.
Another test deals with CDK4 (Homo sapiens, UniProt P11802+Q16531). Description: CDK4 percentage degradation in Calu-1 cells (Table 6). On the set-up: Cells that express cyclin D1-3 and CDK4/6 proteins were treated with heterobifunctional compounds; endogenous in cells; host or cells: Calu-1. The conditions noted are these: 16 hours. In a few lines: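 Calu-1 cells exposed to heterobifunctional compounds at 40 nM or 200 nM for 16 h. Cyclin D1 and CDK4 levels measured by Western blot of RIPA lysates (BCA-normalised loading), bands quantified by densitometry and expressed as percentage degradation.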
Sequence of CDK4 (P11802 2-303 limits assumed): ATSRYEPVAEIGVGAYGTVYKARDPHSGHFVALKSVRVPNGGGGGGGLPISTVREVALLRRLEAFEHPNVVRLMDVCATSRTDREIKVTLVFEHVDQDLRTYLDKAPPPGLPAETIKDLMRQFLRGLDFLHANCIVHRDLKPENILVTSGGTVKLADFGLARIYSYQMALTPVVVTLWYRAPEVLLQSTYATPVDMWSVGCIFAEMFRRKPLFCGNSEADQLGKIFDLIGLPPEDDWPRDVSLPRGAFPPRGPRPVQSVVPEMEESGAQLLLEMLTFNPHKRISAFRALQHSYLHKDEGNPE
Sequence of CDK4 (P24385 whole entry partner): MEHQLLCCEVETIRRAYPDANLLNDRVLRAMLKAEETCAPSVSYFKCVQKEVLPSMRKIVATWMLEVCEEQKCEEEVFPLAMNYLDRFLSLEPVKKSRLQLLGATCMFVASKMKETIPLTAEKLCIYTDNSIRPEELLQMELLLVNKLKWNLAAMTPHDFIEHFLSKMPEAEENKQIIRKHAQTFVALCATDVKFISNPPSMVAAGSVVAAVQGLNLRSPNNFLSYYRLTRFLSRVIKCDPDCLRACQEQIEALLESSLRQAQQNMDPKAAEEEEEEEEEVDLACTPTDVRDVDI
Sequence of CDK4 (Q16531 2-1140 limits assumed): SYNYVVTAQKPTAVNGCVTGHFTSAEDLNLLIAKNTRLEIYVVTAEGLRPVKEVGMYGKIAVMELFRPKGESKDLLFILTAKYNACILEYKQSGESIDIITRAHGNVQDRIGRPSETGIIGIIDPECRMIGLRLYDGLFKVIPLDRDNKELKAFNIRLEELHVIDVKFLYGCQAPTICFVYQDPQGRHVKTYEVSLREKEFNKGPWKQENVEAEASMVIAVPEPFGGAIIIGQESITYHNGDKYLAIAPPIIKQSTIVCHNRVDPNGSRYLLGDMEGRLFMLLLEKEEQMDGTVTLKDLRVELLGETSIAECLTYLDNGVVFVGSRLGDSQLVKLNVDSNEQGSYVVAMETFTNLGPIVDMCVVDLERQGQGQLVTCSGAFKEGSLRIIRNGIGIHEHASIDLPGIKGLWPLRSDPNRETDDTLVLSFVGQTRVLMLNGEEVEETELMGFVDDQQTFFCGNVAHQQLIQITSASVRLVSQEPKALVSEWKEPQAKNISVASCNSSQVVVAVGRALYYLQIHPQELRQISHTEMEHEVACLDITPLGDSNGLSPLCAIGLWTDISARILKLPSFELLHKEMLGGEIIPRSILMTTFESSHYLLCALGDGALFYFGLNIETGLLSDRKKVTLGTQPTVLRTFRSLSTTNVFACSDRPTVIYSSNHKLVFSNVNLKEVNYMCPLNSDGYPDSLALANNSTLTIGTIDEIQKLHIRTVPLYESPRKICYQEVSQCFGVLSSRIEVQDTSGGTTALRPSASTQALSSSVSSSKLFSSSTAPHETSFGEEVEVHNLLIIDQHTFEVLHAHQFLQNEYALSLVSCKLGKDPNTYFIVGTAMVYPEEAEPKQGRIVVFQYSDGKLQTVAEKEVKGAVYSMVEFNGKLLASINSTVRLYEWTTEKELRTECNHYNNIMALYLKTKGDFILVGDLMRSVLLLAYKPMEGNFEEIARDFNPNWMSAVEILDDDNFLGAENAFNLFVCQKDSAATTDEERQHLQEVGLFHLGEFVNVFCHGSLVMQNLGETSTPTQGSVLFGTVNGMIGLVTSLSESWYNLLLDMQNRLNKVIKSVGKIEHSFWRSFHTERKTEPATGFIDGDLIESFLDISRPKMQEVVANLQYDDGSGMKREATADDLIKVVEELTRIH

Take `CC(=O)c1c(C)c2cnc(Nc3ccc(N4CCN(C5CCN(C(=O)[C@H]6CC[C@H](Nc7nc(NC(C)C)ccc7-c7nc8cc(N(C)C)ccc8[nH]7)CC6)C5)CC4)cn3)nc2n(C2CCCC2)c1=O` (relative stereo) [CPD-540, trans-6-acetyl-8-cyclopentyl-2-((5-(4-(1-(4-((3-(5-(dimethylamino)-1H-benzo[d]imidazol-2-yl)-6-(isopropylamino)pyridin-2-yl)amino)cyclohexane-1-carbonyl)pyrrolidin-3-yl)piperazin-1-yl)pyridin-2-yl)amino)-5-methylpyrido[2,3-d]pyrimidin-7(8H)-one]: the half-maximal inhibitory concentration (IC50) in the test with Calu-1 cells was at least 50 nM; with MCF7 cells, over 100 nM.
Taken in the same sequence, the figures for `CC(=O)c1c(C)c2cnc(Nc3ccc(N4CCN(C5CCN(C(=O)[C@H]6CC[C@H](Nc7nc(NC(C)C)ccc7-c7nc8ccc(N(C)C)nc8[nH]7)CC6)C5)CC4)cn3)nc2n(C2CCCC2)c1=O` (relative stereo) [CPD-546, trans-6-acetyl-8-cyclopentyl-2-((5-(4-(1-(4-((3-(5-(dimethylamino)-3H-imidazo[4,5-b]pyridin-2-yl)-6-(isopropylamino)pyridin-2-yl)amino)cyclohexane-1-carbonyl)pyrrolidin-3-yl)piperazin-1-yl)pyridin-2-yl)amino)-5-methylpyrido[2,3-d]pyrimidin-7(8H)-one] were at most 10 nM and under 50 nM.
With `CNc1ccc(C(=O)Nc2ccn(C)n2)c(NC2CC3(C2)CN(C(=O)CCN2CCN(c4ccc(Nc5ncc6c(C)c(C(C)=O)c(=O)n(C7CCCC7)c6n5)nc4)CC2)C3)n1` [CPD-144, 2-((2-(3-(4-(6-((6-acetyl-8-cyclopentyl-5-methyl-7-oxo-7,8-dihydropyrido[2,3-d]pyrimidin-2-yl)amino)pyridin-3-yl)piperazin-1-y)propanoyl)-2-azaspiro[3.3]heptan-6-yl)amino)-N-(1-methyl-1H-pyrazol-3-yl)-6-(methylamino)nicotinamide], the IC50 with Calu-1 cells lay in the range of 10 to 50 nM. Also, the inhibition at 0.04 µM at CDK4 (40 nM) was 50 to 80%. For the same compound, the inhibition at 0.2 µM at CDK4 (200 nM) was over 80%.
On to `[2H]C([2H])([2H])Nc1ccc(C(=O)Nc2cccc(C)n2)c(NC2CCN(C(=O)CN3CCN(c4ccc(Nc5ncc6c(C)c(C(C)=O)c(=O)n(C7CCCC7)c6n5)nc4)CC3)CC2)n1` [CPD-270, 2-((1-(2-(4-(6-((6-acetyl-8-cyclopentyl-5-methyl-7-oxo-7,8-dihydropyrido[2,3-d]pyrimidin-2-yl)amino)pyridin-3-yl)piperazin-1-yl)acetyl)piperidin-4-yl)amino)-6-((methyl-d3)amino)-N-(6-methylpyridin-2-yl)nicotinamide], for which the IC50 in the test with Calu-1 cells is at least 50 nM; in the test with MCF7 cells, over 100 nM.
`CC(=O)c1c(C)c2cnc(Nc3ccc(N4CCN(CC(=O)NC5CC6(C5)CC(Nc5nc(NC(C)C)ccc5C(=O)Nc5cc(C)n(C(F)(F)F)n5)C6)CC4)cn3)nc2n(C2CCCC2)c1=O` (stereo not shown) [CPD-514, 2-((6-(2-(4-(6-((6-acetyl-8-cyclopentyl-5-methyl-7-oxo-7,8-dihydropyrido[2,3-d]pyrimidin-2-yl)amino)pyridin-3-yl)piperazin-1-yl)acetamido)spiro[3.3]heptan-2-yl)amino)-6-(isopropylamino)-N-(5-methyl-1-(trifluoromethyl)-1H-pyrazol-3-yl)nicotinamide]: in the test on Calu-1 cells, the IC50 was at least 50 nM.
The same measure, in the same setting: the result for `CC(=O)c1c(C)c2cnc(Nc3ccc(N4CCN(C5CCN(C(=O)C6(C)CCC(Nc7nc(NC(C)C)ccc7C(=O)Nc7ccc(N(C)C)nn7)CC6)C5)CC4)cn3)nc2n(C2CCCC2)c1=O` (stereo not shown) [CPD-516, 2-((4-(3-(4-(6-((6-acetyl-8-cyclopentyl-5-methyl-7-oxo-7,8-dihydropyrido[2,3-d]pyrimidin-2-yl)amino)pyridin-3-yl)piperazin-1-yl)pyrrolidine-1-carbonyl)-4-methylcyclohexyl)amino)-N-(6-(dimethylamino)pyridazin-3-yl)-6-(isopropylamino)nicotinamide] reads 10 to 50 nM; that for `CC(=O)c1c(C)c2cnc(Nc3ccc(N4CCC(N(C)C(=O)CN5CC(Nc6nc(NC(C)C)ccc6C(=O)Nc6ccc(N(C)C)nn6)C5)CC4)cn3)nc2n(C2CCCC2)c1=O` [CPD-517, 2-((1-(2-((1-(6-((6-acetyl-8-cyclopentyl-5-methyl-7-oxo-7,8-dihydropyrido[2,3-d]pyrimidin-2-yl)amino)pyridin-3-yl)piperidin-4-yl)(methyl)amino)-2-oxoethyl)azetidin-3-yl)amino)-N-(6-(dimethylamino)pyridazin-3-yl)-6-(isopropylamino)nicotinamide], at least 50 nM; that for `CC(=O)c1c(C)c2cnc(Nc3ccc(N4CCN(C5CCN(C(=O)CN6CC7(CC(Nc8nc(NC(C)C)ccc8C(=O)Nc8ccc(N(C)C)nn8)C7)C6)C5)CC4)cn3)nc2n(C2CCCC2)c1=O` (stereo not shown) [CPD-518, 2-((2-(2-(3-(4-(6-((6-acetyl-8-cyclopentyl-5-methyl-7-oxo-7,8-dihydropyrido[2,3-d]pyrimidin-2-yl)amino)pyridin-3-yl)piperazin-1-yl)pyrrolidin-1-yl)-2-oxoethyl)-2-azaspiro[3.3]heptan-6-yl)amino)-N-(6-(dimethylamino)pyridazin-3-yl)-6-(isopropylamino)nicotinamide], at most 10 nM.
Same read-out and setting: as for `[2H]C([2H])([2H])Nc1ccc(C(=O)Nc2ccc(N(C)C)nn2)c(NC2CC3(C2)CN(C(=O)CN2CCC4(CCN(Cc5ccc(Nc6ncc7c(C)c(C(C)=O)c(=O)n(C8CCCC8)c7n6)nc5)C4)C2)C3)n1` (stereo not shown) [CPD-519, 2-((2-(2-(7-((6-((6-acetyl-8-cyclopentyl-5-methyl-7-oxo-7,8-dihydropyrido[2,3-d]pyrimidin-2-yl)amino)pyridin-3-yl)methyl)-2,7-diazaspiro[4.4]nonan-2-yl)acetyl)-2-azaspiro[3.3]heptan-6-yl)amino)-N-(6-(dimethylamino)pyridazin-3-yl)-6-((methyl-d3)amino)nicotinamide], the figure is at most 10 nM; as for `[2H]C([2H])([2H])Nc1ccc(C(=O)Nc2cc3n(n2)CCC3)c(N[C@H]2CC[C@H](C(=O)N3CCC(N4CCN(c5ccc(Nc6ncc7c(C)c(C(C)=O)c(=O)n(C8CCCC8)c7n6)nc5)CC4)C3)CC2)n1` (stereo partly drawn) [CPD-521, 2-((trans-4-(3-(4-(6-((6-acetyl-8-cyclopentyl-5-methyl-7-oxo-7,8-dihydropyrido[2,3-d]pyrimidin-2-yl)amino)pyridin-3-yl)piperazin-1-yl)pyrrolidine-1-carbonyl)cyclohexyl)amino)-N-(5,6-dihydro-4H-pyrrolo[1,2-b]pyrazol-2-yl)-6-((methyl-d3)amino)nicotinamide], 10 to 50 nM.
As to `COc1cccc(NC(=O)c2ccc(NC(C)C)nc2N[C@H]2CC[C@H](C(=O)N3CCC(N4CCN(c5ccc(Nc6ncc7c(C)c(C(C)=O)c(=O)n(C8CCCC8)c7n6)nc5)CC4)C3)CC2)n1` (stereo partly drawn) [CPD-522, 2-((trans-4-(3-(4-(6-((6-acetyl-8-cyclopentyl-5-methyl-7-oxo-7,8-dihydropyrido[2,3-d]pyrimidin-2-yl)amino)pyridin-3-yl)piperazin-1-yl)pyrrolidine-1-carbonyl)cyclohexyl)amino)-6-(isopropylamino)-N-(6-methoxypyridin-2-yl)nicotinamide], the half-inhibitory concentration (IC50) in the test with Calu-1 cells is at most 10 nM.
Still for that read-out and setting: as for `[2H]C([2H])([2H])Nc1ccc(C(=O)Nc2cccc(OC)n2)c(N[C@H]2CC[C@H](C(=O)N3CCC(N4CCN(c5ccc(Nc6ncc7c(C)c(C(C)=O)c(=O)n(C8CCCC8)c7n6)nc5)CC4)C3)CC2)n1` (stereo partly drawn) [CPD-523, 2-((trans-4-(3-(4-(6-((6-acetyl-8-cyclopentyl-5-methyl-7-oxo-7,8-dihydropyrido[2,3-d]pyrimidin-2-yl)amino)pyridin-3-yl)piperazin-1-yl)pyrrolidine-1-carbonyl)cyclohexyl)amino)-N-(6-methoxypyridin-2-yl)-6-((methyl-d3)amino)nicotinamide], the figure is at least 50 nM; as for `[2H]C([2H])([2H])Nc1ccc(C(=O)Nc2cc3n(n2)CCC3)c(NC2CC3(C2)CN(C(=O)CC(N2CCN(c4ccc(Nc5ncc6c(C)c(C(C)=O)c(=O)n(C7CCCC7)c6n5)nc4)CC2)C(F)(F)F)C3)n1` (stereo not shown) [CPD-524, 2-((2-(3-(4-(6-((6-acetyl-8-cyclopentyl-5-methyl-7-oxo-7,8-dihydropyrido[2,3-d]pyrimidin-2-yl)amino)pyridin-3-yl)piperazin-1-yl)-4,4,4-trifluorobutanoyl)-2-azaspiro[3.3]heptan-6-yl)amino)-N-(5,6-dihydro-4H-pyrrolo[1,2-b]pyrazol-2-yl)-6-((methyl-d3)amino)nicotinamide], at most 10 nM; as for `CC(=O)c1c(C)c2cnc(Nc3ccc(N4CCN(C5CCN(C(=O)[C@H]6CC[C@H](Nc7cc(NC(C)C)ccc7C(=O)Nc7ccc(N(C)C)nn7)CC6)C5)CC4)cn3)nc2n(C2CCCC2)c1=O` (stereo partly drawn) [CPD-527, 2-((trans-4-(3-(4-(6-((6-acetyl-8-cyclopentyl-5-methyl-7-oxo-7,8-dihydropyrido[2,3-d]pyrimidin-2-yl)amino)pyridin-3-yl)piperazin-1-yl)pyrrolidine-1-carbonyl)cyclohexyl)amino)-N-(6-(dimethylamino)pyridazin-3-yl)-4-(isopropylamino)benzamide], at most 10 nM.

Broadly, the IC50 is the concentration that gives 50% inhibition. The inhibition is the relative decrease from the control value, in per cent. Low values mean a response near the control, high ones a response far below the control.
